This is an account of results in patent publication EP4745134A1 (Jiangsu Yahong Meditech Co., Ltd., priority 2023, dated 2025).

One assay addresses PRMT5-MTA (Homo sapiens, UniProt O14744). Put plainly: Enzymatic inhibitory activity against PRMT5-MTA (AlphaScreen). It counts as biochemical. In short, it runs like this: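 PRMT5/[…] (1 nM) was preincubated for 30 min at room temperature with 1 µM […] and 2.5 µM SAM, then exposed to compound (10-point, 3-fold from 1000 nM) for 15 min at 23 °C. Histone H4 substrate (5 nM) was added and reacted for 45 min at 23 °C. Symmetric dimethyl-R3 H4 was detected by AlphaScreen and IC50 calculated.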
In general terms: In Alpha technology, singlet oxygen from a donor bead excites a nearby acceptor bead.

The next assay has as its system HCT116-WT cells. Nature of the assay: Inhibitory activity against cell proliferation (CellTiter Glo, 6 days), HCT116-WT. It counts as cell-based. As to conditions: 144 h, HCT116-WT cells, 6 days, CellTiter Glo; read-out: HCT116-WT IC50. In short, it runs like this: (§1)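 Viability is measured by CellTiter Glo luminescence on day 7, following a 6-day treatment with compounds serially diluted 4-fold over 8 points from 10000 nM. Both lines are plated at 250 cells per well and cultured overnight beforehand.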
(Cellular ATP, detected with luciferase, serves as a proxy for viable cell number.)

Another assay has as its system HCT116 MTAP KO cells. Put plainly: Inhibitory activity against cell proliferation (CellTiter Glo, 6 days), HCT116 MTAP KO. It is filed as cell-based. As to conditions: for IC50: Homo sapiens, HCT-116, 144 h, HCT116 MTAP KO cells, 6 days, CellTiter Glo, read-out: HCT116 MTAP KO IC50; for Selectivity HCT 116-WT/ HCT116 MTAP KO: ratio of IC50 HCT116-WT / HCT116 MTAP KO. In short, it runs like this: as §1

Where two headings read alike, the source gives them in different places.

Sequence of PRMT5-MTA (O14744 whole entry): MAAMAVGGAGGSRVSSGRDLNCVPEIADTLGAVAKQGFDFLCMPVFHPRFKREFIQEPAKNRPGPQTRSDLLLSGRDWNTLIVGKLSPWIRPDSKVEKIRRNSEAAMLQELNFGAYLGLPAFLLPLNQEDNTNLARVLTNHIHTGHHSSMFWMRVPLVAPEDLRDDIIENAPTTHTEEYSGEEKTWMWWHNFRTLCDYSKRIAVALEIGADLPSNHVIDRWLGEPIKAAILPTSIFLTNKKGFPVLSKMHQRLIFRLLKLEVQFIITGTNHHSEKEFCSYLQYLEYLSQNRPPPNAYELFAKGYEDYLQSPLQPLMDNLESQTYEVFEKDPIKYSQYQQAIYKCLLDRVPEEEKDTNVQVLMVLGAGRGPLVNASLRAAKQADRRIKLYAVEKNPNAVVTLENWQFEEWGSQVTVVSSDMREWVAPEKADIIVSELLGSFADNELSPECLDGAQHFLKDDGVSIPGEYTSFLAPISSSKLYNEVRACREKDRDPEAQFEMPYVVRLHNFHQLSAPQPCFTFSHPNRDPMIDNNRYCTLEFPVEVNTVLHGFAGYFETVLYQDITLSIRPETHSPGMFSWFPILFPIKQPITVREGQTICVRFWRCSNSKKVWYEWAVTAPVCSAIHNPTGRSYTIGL
Sequence of PRMT5-MTA (Q9BQA1 whole entry partner): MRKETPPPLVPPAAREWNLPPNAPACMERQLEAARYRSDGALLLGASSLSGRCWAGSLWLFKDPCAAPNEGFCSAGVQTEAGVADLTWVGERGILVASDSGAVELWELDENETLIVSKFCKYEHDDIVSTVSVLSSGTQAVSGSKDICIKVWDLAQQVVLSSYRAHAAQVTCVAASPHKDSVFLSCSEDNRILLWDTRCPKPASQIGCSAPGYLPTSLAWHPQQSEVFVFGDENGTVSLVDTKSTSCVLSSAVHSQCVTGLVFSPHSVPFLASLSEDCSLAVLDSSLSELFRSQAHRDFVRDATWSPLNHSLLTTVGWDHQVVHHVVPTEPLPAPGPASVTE

`[2H]C([2H])([2H])c1cc2cc(C(=O)N(Cc3ccc(C(F)(F)F)cn3)N(C)c3ncccn3)ccc2nc1N` [Example 310, 2-amino-N'-methyl-3-(methyl-d3)-N'-(pyrimidin-2-yl)-N-((5-(trifluoromethyl)pyridin-2-yl)methyl)quinoline-6-carbohydrazide]: the 50% inhibitory concentration (IC50) amounted to 0.0018 µM at PRMT5-MTA (read-out: IC50), 1.12 µM in the assay with HCT116-WT cells and 0.033 µM with HCT116 MTAP KO cells. In addition, the “Selectivity HCT 116-WT/ HCT116 MTAP KO” value in the assay with HCT116 MTAP KO cells turned out to be 34.09.
`Cc1cc2cc(C(=O)N(Cc3ccc(-c4ccc(C#N)nc4)cn3)N(C)c3ncccn3)ccc2nc1N` [Example 139, 2-amino-N-((6'-cyano-[3,3'-bipyridine]-6-yl)methyl)-N',3-dimethyl-N'-(pyrimidin-2-yl)quinoline-6-carbohydrazide]: the results for the concentration for half-maximal inhibition (IC50) at PRMT5-MTA (read-out: IC50), in the assay with HCT116-WT cells and in the assay with HCT116 MTAP KO cells were 0.003 µM, 0.281 µM and 0.022 µM, respectively. Besides, the “Selectivity HCT 116-WT/ HCT116 MTAP KO” value in the assay on HCT116 MTAP KO cells worked out at 12.77.
The corresponding values for `Cc1cc2cc(C(=O)N(Cc3ccc(-c4cnn(C5COC5)c4)cn3)N(C)c3ncccn3)ccc2nc1N` [Example 169, 2-amino-N',3-dimethyl-N-((5-(1-(oxetan-3-yl)-1H-pyrazol-4-yl)pyridin-2-yl)methyl)-N'-(pyrimidin-2-yl)quinoline-6-carbohydrazide] are 0.0025 µM, 0.973 µM, 0.039 µM and 24.95.
`Cc1cc2nc(N)c3cnn(C)c3c2cc1C(=O)N1CC(C)CN1c1cccc(C#N)n1` (centres unmarked) [Example 365, 6-(2-(4-amino-1,7-dimethyl-1H-pyrazolo [4,3-c]quinoline-8-formyl)-4-methylpyrazolidin-1-yl)pyridinecarbonitrile]: the IC50 at PRMT5-MTA (read-out: IC50) came out at 0.0032 µM; in the assay with HCT116-WT cells it was 1.69 µM; with HCT116 MTAP KO cells, 0.035 µM. Further, the “Selectivity HCT 116-WT/ HCT116 MTAP KO” value in the assay on HCT116 MTAP KO cells stood at 48.37.
In the case of `Cc1cc2cc(C(=O)N(Cc3ccc(C(F)(F)F)cn3)N(C)c3ncc(F)cn3)ccc2nc1N` [Example 95, 2-amino-N'-(5-fluoropyrimidin-2-yl)-N',3-dimethyl-N-((5-(trifluoromethyl)pyridin-2-yl)methyl)quinoline-6-carbohydrazide], the results for the IC50 at PRMT5-MTA (read-out: IC50), in the assay with HCT116-WT cells and with HCT116 MTAP KO cells were 0.0021 µM, 2.46 µM and 0.07 µM, respectively. Besides, the “Selectivity HCT 116-WT/ HCT116 MTAP KO” value with HCT116 MTAP KO cells is on record as 35.14.
In the case of `Cc1cc2cc(C(=O)N(Cc3ccc(C(F)(F)F)cn3)N(C)c3nccs3)ccc2nc1N` [Example 33, 2-amino-N',3-dimethyl-N'-(thiazol-2-yl)-N-((5-(trifluoromethyl)pyridin-2-yl)methyl)quinoline-6-carbohydrazide], the IC50 is 0.0033 µM at PRMT5-MTA (read-out: IC50), 2.48 µM in the assay with HCT116-WT cells and 0.125 µM with HCT116 MTAP KO cells. For the same molecule, the “Selectivity HCT 116-WT/ HCT116 MTAP KO” value in the assay on HCT116 MTAP KO cells stood at 19.87.
On the same counts, the results for `Cn1ncc2c(N)nc3cc(Cl)c(C(=O)N4CC(F)(F)CN4c4ccccc4F)cc3c21` [Example 457, (4-amino-7-chloro-1-methyl-1H-pyrazolo [4,3-c]quinolin-8-yl)(4,4-difluoro-2-(2-fluorophenyl)pyrazolidin-1-yl)methanone] are 0.0075 µM, 0.123 µM, 0.012 µM and 10.25.
The corresponding values for `Cc1cc2cc(C(=O)N(Cc3ccc(-c4cnn(C)c4)cn3)N(c3ncccn3)C3CC3)ccc2nc1N` [Example 152, 2-amino-N'-cyclopropyl-3-methyl-N-((5-(1-methyl-1H-pyrazol-4-yl)pyridin-2-yl)methyl)-N'-(pyrimidin-2-yl)quinoline-6-c arbohydrazide] are 0.0044 µM, 0.998 µM, 0.035 µM and 28.51.
In the case of `Cc1cc2cc(C(=O)N(Cc3ccc(-c4cncc(C(F)(F)F)c4)cn3)N(C)c3ncccn3)ccc2nc1N` [Example 175, 2-amino-N',3-dimethyl-N'-(pyrimidin-2-yl)-N-((5'-(trifluoromethyl)-[3,3'-bipyridine]-6-yl)methyl)quinoline-6-carbohydrazide], the 50% inhibitory concentration (IC50) stood at 0.0033 µM at PRMT5-MTA (read-out: IC50), 2.2 µM with HCT116-WT cells and 0.116 µM in the assay on HCT116 MTAP KO cells. Further, the “Selectivity HCT 116-WT/ HCT116 MTAP KO” value with HCT116 MTAP KO cells was found to be 18.95.
The corresponding values for `Cc1cc2nc(N)c3ccncc3c2cc1C(=O)N1CC(C)CN1c1ncccc1F` (centres unmarked) [Example 502, (5-amino-8-methylbenzo[C] [2,6]naphthyridin-9-yl)(2-(3-fluoropyridin-2-yl)-4-methylpyrazolidin-1-yl)methanone] are 0.0052 µM, 1.51 µM, 0.14 µM and 10.79.
With `Cn1ncc2c(N)nc3cc(Cl)c(C(=O)N4CC(C)(F)CN4c4ncccc4F)cc3c21` (centres unmarked) [Example 425, (4-amino-7-chloro-1-methyl-1H-pyrazolo [4,3-c]quinolin-8-yl)(4-fluoro-2-(3-fluoropyridin-2-yl)-4-methylpyrazolidin-1-yl)m ethanone], the IC50 at PRMT5-MTA (read-out: IC50) was determined as 0.0083 µM; with HCT116-WT cells it was 0.85 µM; in the assay on HCT116 MTAP KO cells, 0.054 µM. Further, the “Selectivity HCT 116-WT/ HCT116 MTAP KO” value in the assay on HCT116 MTAP KO cells was found to be 15.74.
The corresponding values for `Cc1cc2cc(C(=O)N(Cc3ccc(Br)cc3F)N(C)c3nccc4nccnc34)ccc2nc1N` [Example 72, 2-amino-N-(4-bromo-2-fluorobenzyl)-N', 3-dimethyl-N'-(pyrido[3,4-b]pyrazin-5-yl)quinoline-6-carbohydrazide] are 0.0027 µM, 1.61 µM, 0.092 µM and 17.50.
The corresponding values for `Cc1cc2cc(C(=O)N(Cc3ccc(-c4cncnc4)cn3)N(C)c3ncccn3)ccc2nc1N` [Example 193, 2-amino-N',3-dimethyl-N'-(pyrimidin-2-yl)-N-((5-(pyrimidin-5-yl)pyridin-2-yl)methyl)quinoline-6-carbohydrazide] are 0.0027 µM, 2.38 µM, 0.094 µM and 25.35.
On the same counts, the results for `Cc1cc2cc(C(=O)N(Cc3ccc(-c4scnc4C(F)F)cn3)N(c3ncccn3)C3CC3)ccc2nc1N` [Example 239, 2-amino-N'-cyclopropyl-N-((5-(4-(difluoromethyl)thiazol-5-yl)pyridin-2-yl)methyl)-3-methyl-N'-(pyrimidin-2-yl)quinoline-6-carbohydrazide] are 0.0073 µM, 0.261 µM, 0.014 µM and 18.64.
Regarding `CN(c1ccccc1)N(Cc1ccc(C(F)(F)F)cn1)C(=O)c1ccc2nc(N)c3cnn(C)c3c2c1` [Example 52, 4-amino-N',1-dimethyl-N'-phenyl-N-((5-(trifluoromethyl)pyridin-2-yl)methyl)-1H-pyrazolo[4,3-c]quinoline-8-carbohydrazide], the 50% inhibitory concentration (IC50) on PRMT5-MTA (read-out: IC50) is 0.0037 µM; in the assay with HCT116-WT cells, 0.417 µM; in the assay on HCT116 MTAP KO cells it was 0.013 µM. In addition, in the assay on HCT116 MTAP KO cells, the “Selectivity HCT 116-WT/ HCT116 MTAP KO” value is 32.08.
The corresponding values for `Cc1cc2cc(C(=O)N(Cc3ccc(C(F)(F)F)cn3)N(C)c3ncc4ncccc4n3)ccc2nc1N` [Example 80, 2-amino-N',3-dimethyl-N'-(pyrido[3,2-d]pyrimidin-2-yl)-N-((5-(trifluoromethyl)pyridin-2-yl)methyl)quinoline-6-carbohydrazide] are 0.0019 µM, 1.87 µM, 0.132 µM and 14.18.
The corresponding values for `Cc1cc2cc(C(=O)N(Cc3ccc(-c4cccnc4)cc3F)N(C)c3ncccn3)ccc2nc1N` [Example 177, 2-amino-N-(2-fluoro-4-(pyridin-3-yl)benzyl)-N',3-dimethyl-N'-(pyrimidin-2-yl)qu inoline-6-carbohydrazide] are 0.0011 µM, 0.936 µM, 0.03 µM and 31.20.
Consider `Cc1cc2nc(N)c3cnn(C)c3c2cc1C(=O)N1CCCN1c1ccc(C2CC2)cn1` [Example 468, (4-amino-1,7-dimethyl-1H-pyrazolo[4,3-c]quinolin-8-yl)(2-(5-cyclopropylpyridin-2-yl)pyrazolidin-1-yl)methanone], for which the results for the 50% inhibitory concentration (IC50) at PRMT5-MTA (read-out: IC50), in the assay with HCT116-WT cells and in the assay on HCT116 MTAP KO cells were 0.0032 µM, 4.34 µM and 0.18 µM, respectively. Besides, in the assay with HCT116 MTAP KO cells, the “Selectivity HCT 116-WT/ HCT116 MTAP KO” value is 24.09.
For `COCC1CN(C(=O)c2cc3c(cc2C)nc(N)c2cnn(C)c23)N(c2ncccc2F)C1` (centres unmarked) [Example 357], the values for the IC50 at PRMT5-MTA, with HCT116-WT cells and in the assay with HCT116 MTAP KO cells were 0.0034 µM, 0.852 µM and 0.016 µM, respectively. The “Selectivity HCT 116-WT/ HCT116 MTAP KO” value in the assay with HCT116 MTAP KO cells was 53.25.
As to `COc1ccnc(N(C)N(Cc2ccc(C(F)(F)F)cn2)C(=O)c2ccc3nc(N)c(C)cc3c2)n1` [Example 76, 2-amino-N'-(4-methoxypyrimidin-2-yl)-N',3-dimethyl-N-((5-(trifluoromethyl)pyridin-2-yl)methyl)quinoline-6-carbohydrazide], the IC50 on PRMT5-MTA (read-out: IC50) was 0.0016 µM; with HCT116-WT cells it was 2.15 µM; with HCT116 MTAP KO cells, 0.098 µM. Also, the “Selectivity HCT 116-WT/ HCT116 MTAP KO” value in the assay on HCT116 MTAP KO cells is listed as 21.94.

One may read the IC50 as the concentration needed to halve the response being measured.
